In PubChem BioAssay (NCI):
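These data come from cells grown in 96-well plates and exposed to compound for 48 hours at five concentrations. TGI denotes the concentration required for complete inhibition of growth.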

Columns and labels:
Experiment in all cases: NCI tumour cell line growth inhibition, 48 h
UACC-257 melanoma = system: UACC-257 melanoma
HCT-15 colon = system: HCT-15 colon
NCI-H460 lung = system: NCI-H460 lung
DU-145 prostate = system: DU-145 prostate
SNB-75 CNS = system: SNB-75 CNS
SW-620 colon = system: SW-620 colon
M14 melanoma = system: M14 melanoma
COLO 205 colon = system: COLO 205 colon
OVCAR-8 ovarian = system: OVCAR-8 ovarian
OVCAR-5 ovarian = system: OVCAR-5 ovarian
U251 CNS = system: U251 CNS
SK-MEL-28 melanoma = system: SK-MEL-28 melanoma
TK-10 renal = system: TK-10 renal
SR leukemia = system: SR leukemia
K-562 leukemia = system: K-562 leukemia
RXF 393 renal = system: RXF 393 renal
LOX IMVI melanoma = system: LOX IMVI melanoma
UACC-62 melanoma = system: UACC-62 melanoma
ACHN renal = system: ACHN renal
HOP-92 NSCLC = system: HOP-92 NSCLC
BT-549 breast = system: BT-549 breast
A498 renal = system: A498 renal
SNB-19 CNS = system: SNB-19 CNS
NCI-H522 lung = system: NCI-H522 lung
SF-295 CNS = system: SF-295 CNS
PC-3 prostate = system: PC-3 prostate
NCI-H23 lung = system: NCI-H23 lung
HS 578T breast = system: HS 578T breast
MDA-MB-231 breast = system: MDA-MB-231 breast
MCF7 breast = system: MCF7 breast
MALME-3M melanoma = system: MALME-3M melanoma
EKVX NSCLC = system: EKVX NSCLC
NCI/ADR-RES ovarian = system: NCI/ADR-RES ovarian
SF-539 CNS = system: SF-539 CNS
OVCAR-4 ovarian = system: OVCAR-4 ovarian
SK-MEL-2 melanoma = system: SK-MEL-2 melanoma
HT29 colon = system: HT29 colon
SN12C renal = system: SN12C renal
CAKI-1 renal = system: CAKI-1 renal
SK-MEL-5 melanoma = system: SK-MEL-5 melanoma
SF-268 CNS = system: SF-268 CNS
A549 NSCLC = system: A549 NSCLC
NCI-H226 lung = system: NCI-H226 lung
SK-OV-3 ovarian = system: SK-OV-3 ovarian
MDA-MB-435 = system: MDA-MB-435
UO-31 renal = system: UO-31 renal
MDA-N = system: MDA-N
HCT-116 colon = system: HCT-116 colon
OVCAR-3 ovarian = system: OVCAR-3 ovarian
KM12 colon = system: KM12 colon
MOLT-4 leukemia = system: MOLT-4 leukemia
T-47D breast = system: T-47D breast
786-0 renal = system: 786-0 renal
HL-60(TB) leukemia = system: HL-60(TB) leukemia
HOP-62 NSCLC = system: HOP-62 NSCLC
HCC-2998 colon = system: HCC-2998 colon
CCRF-CEM leukemia = system: CCRF-CEM leukemia

Measured: TGI

c1cc(-c2ccc(-c3ccc(C4=NCCCN4)cc3)o2)ccc1C1=NCCCN1
13.4 µM: A498 renal
95.7 µM: SN12C renal
> 100 µM: all other assays above
